Data reported in patent US20260317340A1, “COMPOUNDS, COMPOSITIONS, AND METHODS OF TREATING DISORDERS” (Chengdu Anticancer Bioscience, Ltd., priority 2023, published 2026).
Read-outs that look alike come from different tables or passages of the source.

Assays:
[1] = system: RPE-Neo or RPE-MYC or RPE-MYC expressing an EGFP-Histone 2B fusion protein; experiment: Phenotypic screening assay: arrest in mitosis, change in DNA content (polyploidy), cell death; assay type: cell-based; details: 20 nM to 20 μM, 24, 48 or 72 hours
How it was run: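 Compound exposure from 20 nM to 20 μM in RPE lines (Neo, MYC, or MYC with EGFP-histone H2B), seeded 18-24 h earlier; imaging at 24, 48 or 72 h read mitotic arrest or altered DNA content, with MTT for proliferation. Results reported as A–D range categories.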

[2] = system: RPE-Neo or RPE-MYC cells; experiment: MTT assay of cellular proliferation (proliferative arrest); assay type: cell-based; details: read-out: Min. Effective conc. for Proliferative arrest (>50%)
[3] = read-out: Min. Effective conc. for Along with Cell Death
[4] = ≥5%, read-out: Min. Effective conc. for Mitotic Arrest (≥5%)
[5] = ≥5%, read-out: Min. Effective conc. for Polyploidy (≥5%)

COc1ccc(CN2C(=O)CC(c3ncc(C)o3)=Cc3ccc(-c4ccnc(N)c4)cc32)cc1 [Compound 55, 8-(2-Aminopyridin-4-yl)-1-(4-methoxybenzyl)-4-(5-methyloxazol-2-yl)-1,3-dihydro-2H-benzo[b]azepin-2-one]
minimal effective concentration [1, 3]: 0.001 to 1 µM
minimal effective concentration [1, 4]: 0.001 to 1 µM
minimal effective concentration [1, 5]: 0.001 to 1 µM
minimal effective concentration [2]: 0.001 to 1 µM

COc1ccc(CN2C(=O)CC(c3ncc(C)o3)=Cc3ccc(-c4cnn(C(C)(C)CO)c4)cc32)cc1 [Compound 56, 8-(1-(1-hydroxy-2-methylpropan-2-yl)-1H-pyrazol-4-yl)-1-(4-methoxybenzyl)-4-(5-methyloxazol-2-yl)-1,3-dihydro-2H-benzo[b]azepin-2-one]
minimal effective concentration [1, 3]: 0.001 to 1 µM
minimal effective concentration [1, 4]: 0.001 to 1 µM
minimal effective concentration [1, 5]: 0.001 to 1 µM
minimal effective concentration [2]: 0.001 to 1 µM

CCOC(C)n1cc(-c2ccc3c(c2)N(Cc2ccc(OC)cc2)C(=O)CC(c2ncc(C)o2)=C3)cn1 (stereo not drawn) [Compound 58, 8-(1-(1-Ethoxyethyl)-1H-pyrazol-4-yl)-1-(4-methoxybenzyl)-4-(5-methyloxazol-2-yl)-1,3-dihydro-2H-benzo[b]azepin-2-one]
minimal effective concentration [1, 3]: 0.001 to 1 µM
minimal effective concentration [1, 4]: 0.001 to 1 µM
minimal effective concentration [1, 5]: 0.001 to 1 µM
minimal effective concentration [2]: 0.001 to 1 µM

COc1ccc(CN2C(=O)CC(c3ncc(C)o3)=Cc3ccc(-c4cnn(CCC#N)c4)cc32)cc1 [Compound 59, 3-(4-(1-(4-Methoxybenzyl)-4-(5-methyloxazol-2-yl)-2-oxo-2,3-dihydro-1H-benzo[b]azepin-8-yl)-1H-pyrazol-1-yl)propanenitrile]
minimal effective concentration [1, 3]: 0.001 to 1 µM
minimal effective concentration [1, 4]: 0.001 to 1 µM
minimal effective concentration [1, 5]: 0.001 to 1 µM
minimal effective concentration [2]: 0.001 to 1 µM

CNC(=O)c1cc(-c2ccc3c(c2)N(Cc2ccc(OC)cc2)C(=O)CC(c2ncc(C)o2)=C3)ccn1 [Compound 60, 4-(1-(4-Methoxybenzyl)-4-(5-methyloxazol-2-yl)-2-oxo-2,3-dihydro-1H-benzo[b]azepin-8-yl)-N-methylpicolinamide]
minimal effective concentration [1, 3]: 0.001 to 1 µM
minimal effective concentration [1, 4]: 0.001 to 1 µM
minimal effective concentration [1, 5]: 0.001 to 1 µM
minimal effective concentration [2]: 0.001 to 1 µM

COc1ccc(CN2C(=O)CC(c3ncc(C)o3)=Cc3ccc(-c4ccn(C)c(=O)c4)cc32)cc1 [Compound 62, 1-(4-Methoxybenzyl)-8-(1-methyl-2-oxo-1,2-dihydropyridin-4-yl)-4-(5-methyloxazol-2-yl)-1,3-dihydro-2H-benzo[b]azepin-2-one]
minimal effective concentration [1, 3]: 0.001 to 1 µM
minimal effective concentration [1, 4]: 0.001 to 1 µM
minimal effective concentration [1, 5]: 0.001 to 1 µM
minimal effective concentration [2]: 0.001 to 1 µM

COc1ccc(CN2C(=O)CC(c3ncc(C)o3)=Cc3ccc(-c4cnn(CCN5CCCC5)c4)cc32)cc1 [Compound 64, 1-(4-methoxybenzyl)-4-(5-methyloxazol-2-yl)-8-(1-(2-(pyrrolidin-1-yl)ethyl)-1H-pyrazol-4-yl)-1,3-dihydro-2H-benzo[b]azepin-2-one]
minimal effective concentration [1, 3]: 0.001 to 1 µM
minimal effective concentration [1, 4]: 0.001 to 1 µM
minimal effective concentration [1, 5]: 0.001 to 1 µM
minimal effective concentration [2]: 0.001 to 1 µM

COc1ccc(CN2C(=O)CC(c3ncc(C)o3)=Cc3ccc(-c4cnn(CCN(C)C)c4)cc32)cc1 [Compound 66, 8-(1-(2-(Dimethylamino)ethyl)-1H-pyrazol-4-yl)-1-(4-methoxybenzyl)-4-(5-methyloxazol-2-yl)-1,3-dihydro-2H-benzo[b]azepin-2-one]
minimal effective concentration [1, 3]: 0.001 to 1 µM
minimal effective concentration [1, 4]: 0.001 to 1 µM
minimal effective concentration [1, 5]: 0.001 to 1 µM
minimal effective concentration [2]: 0.001 to 1 µM

CNC(=O)Cn1cc(-c2ccc3c(c2)N(Cc2ccc(OC)cc2)C(=O)CC(c2ncc(C)o2)=C3)cn1 [Compound 67, 2-(4-(1-(4-Methoxybenzyl)-4-(5-methyloxazol-2-yl)-2-oxo-2,3-dihydro-1H-benzo[b]azepin-8-yl)-1H-pyrazol-1-yl)-N-methylacetamide]
minimal effective concentration [1, 3]: 0.001 to 1 µM
minimal effective concentration [1, 4]: 0.001 to 1 µM
minimal effective concentration [1, 5]: 0.001 to 1 µM
minimal effective concentration [2]: 0.001 to 1 µM

COc1ccc(CN2C(=O)CC(c3ncc(C)o3)=Cc3ccc(-c4cnn(CC#N)c4)cc32)cc1 [Compound 68, 2-(4-(1-(4-methoxybenzyl)-4-(5-methyloxazol-2-yl)-2-oxo-2,3-dihydro-1H-benzo[b]azepin-8-yl)-1H-pyrazol-1-yl)acetonitrile]
minimal effective concentration [1, 3]: 0.001 to 1 µM
minimal effective concentration [1, 4]: 0.001 to 1 µM
minimal effective concentration [1, 5]: 0.001 to 1 µM
minimal effective concentration [2]: 0.001 to 1 µM

COc1ccc(CN2C(=O)CC(c3ncc(C)o3)=Cc3ccc(-c4cnn(CC(=O)O)c4)cc32)cc1 [Compound 69, 2-(4-(1-(4-Methoxybenzyl)-4-(5-methyloxazol-2-yl)-2-oxo-2,3-dihydro-1H-benzo[b]azepin-8-yl)-1H-pyrazol-1-yl)acetic acid]
minimal effective concentration [1, 3]: 1 to 10 µM
minimal effective concentration [1, 4]: 1 to 10 µM
minimal effective concentration [1, 5]: 1 to 10 µM
minimal effective concentration [2]: 1 to 10 µM

COc1ccc(CN2C(=O)CC(c3ncc(C)o3)=Cc3ccc(-c4cnn(C5CNC5)c4)cc32)cc1 [Compound 70, 8-(1-(Azetidin-3-yl)-1H-pyrazol-4-yl)-1-(4-methoxybenzyl)-4-(5-methyloxazol-2-yl)-1,3-dihydro-2H-benzo[b]azepin-2-one]
minimal effective concentration [1, 3]: 0.001 to 1 µM
minimal effective concentration [1, 4]: 0.001 to 1 µM
minimal effective concentration [1, 5]: 0.001 to 1 µM
minimal effective concentration [2]: 0.001 to 1 µM

CCOC(=O)Cn1cc(-c2ccc3c(c2)N(Cc2ccc(OC)cc2)C(=O)CC(c2ncc(C)o2)=C3)cn1 [Compound 71, Ethyl 2-(4-(1-(4-methoxybenzyl)-4-(5-methyloxazol-2-yl)-2-oxo-2,3-dihydro-1H-benzo[b]azepin-8-yl)-1H-pyrazol-1-yl)acetate]
minimal effective concentration [1, 3]: 0.001 to 1 µM
minimal effective concentration [1, 4]: 0.001 to 1 µM
minimal effective concentration [1, 5]: 0.001 to 1 µM
minimal effective concentration [2]: 0.001 to 1 µM

COc1ccc(CN2C(=O)CC(c3ncc(C)o3)=Cc3ccc(-c4cnn(C(C)C(N)=O)c4)cc32)cc1 (stereo not drawn) [Compound 72]
minimal effective concentration [1, 3]: 0.001 to 1 µM
minimal effective concentration [1, 4]: 0.001 to 1 µM
minimal effective concentration [1, 5]: 0.001 to 1 µM
minimal effective concentration [2]: 0.001 to 1 µM

COc1ccc(CN2C(=O)CC(c3ncc(C)o3)=Cc3ccc(-c4cnn(CC(=O)N(C)C)c4)cc32)cc1 [Compound 73, 2-(4-(1-(4-Methoxybenzyl)-4-(5-methyloxazol-2-yl)-2-oxo-2,3-dihydro-1H-benzo[b]azepin-8-yl)-1H-pyrazol-1-yl)-N,N-dimethylacetamide]
minimal effective concentration [1, 3]: 0.001 to 1 µM
minimal effective concentration [1, 4]: 0.001 to 1 µM
minimal effective concentration [1, 5]: 0.001 to 1 µM
minimal effective concentration [2]: 0.001 to 1 µM

CCOC(=O)C(C)n1cc(-c2ccc3c(c2)N(Cc2ccc(OC)cc2)C(=O)CC(c2ncc(C)o2)=C3)cn1 (stereo not drawn) [Compound 74, Ethyl 2-(4-(1-(4-methoxybenzyl)-4-(5-methyloxazol-2-yl)-2-oxo-2,3-dihydro-1H-benzo[b]azepin-8-yl)-1H-pyrazol-1-yl)propanoate]
minimal effective concentration [1, 3]: 0.001 to 1 µM
minimal effective concentration [1, 4]: 0.001 to 1 µM
minimal effective concentration [1, 5]: 0.001 to 1 µM
minimal effective concentration [2]: 0.001 to 1 µM

COc1ccc(CN2C(=O)CC(c3ncc(C)o3)=Cc3ccc(-c4cnn(C(C)C(=O)O)c4)cc32)cc1 (stereo not drawn) [Compound 75, 2-(4-(1-(4-Methoxybenzyl)-4-(5-methyloxazol-2-yl)-2-oxo-2,3-dihydro-1H-benzo[b]azepin-8-yl)-1H-pyrazol-1-yl)propanoic acid]
minimal effective concentration [1, 3]: 1 to 10 µM
minimal effective concentration [1, 4]: 1 to 10 µM
minimal effective concentration [1, 5]: 1 to 10 µM
minimal effective concentration [2]: 1 to 10 µM

COc1ccc(CN2C(=O)CC(c3ncc(C)o3)=Cc3ccc(-c4cnn(C(C)(C)C(N)=O)c4)cc32)cc1 [Compound 76, 2-(4-(1-(4-Methoxybenzyl)-4-(5-methyloxazol-2-yl)-2-oxo-2,3-dihydro-1H-benzo[b]azepin-8-yl)-1H-pyrazol-1-yl)-2-methylpropanamide]
minimal effective concentration [1, 3]: 0.001 to 1 µM
minimal effective concentration [1, 4]: 0.001 to 1 µM
minimal effective concentration [1, 5]: 0.001 to 1 µM
minimal effective concentration [2]: 0.001 to 1 µM

[2H]C([2H])([2H])OCCCn1cc(-c2ccc3c(c2)N(Cc2ccc(OC)cc2)C(=O)CC(c2ncc(C)o2)=C3)cn1 [Compound 77, 8-(1-(3-(Methoxy-d3)propyl)-1H-pyrazol-4-yl)-1-(4-methoxybenzyl)-4-(5-methyloxazol-2-yl)-1,3-dihydro-2H-benzo[b]azepin-2-one]
minimal effective concentration [1, 3]: 0.001 to 1 µM
minimal effective concentration [1, 4]: 0.001 to 1 µM
minimal effective concentration [1, 5]: 0.001 to 1 µM
minimal effective concentration [2]: 0.001 to 1 µM

COCCOCCn1cc(-c2ccc3c(c2)N(Cc2ccc(OC)cc2)C(=O)CC(c2ncc(C)o2)=C3)cn1 [Compound 78, 1-(4-methoxybenzyl)-8-(1-(2-(2-methoxyethoxy)ethyl)-1H-pyrazol-4-yl)-4-(5-methyloxazol-2-yl)-1,3-dihydro-2H-benzo[b]azepin-2-one]
minimal effective concentration [1, 3]: 0.001 to 1 µM
minimal effective concentration [1, 4]: 0.001 to 1 µM
minimal effective concentration [1, 5]: 0.001 to 1 µM
minimal effective concentration [2]: 0.001 to 1 µM

COCCCCn1cc(-c2ccc3c(c2)N(Cc2ccc(OC)cc2)C(=O)CC(c2ncc(C)o2)=C3)cn1 [Compound 79, 1-(4-methoxybenzyl)-8-(1-(4-methoxybutyl)-1H-pyrazol-4-yl)-4-(5-methyloxazol-2-yl)-1,3-dihydro-2H-benzo[b]azepin-2-one]
minimal effective concentration [1, 3]: 0.001 to 1 µM
minimal effective concentration [1, 4]: 0.001 to 1 µM
minimal effective concentration [1, 5]: 0.001 to 1 µM
minimal effective concentration [2]: 0.001 to 1 µM
